The values below come from ChEMBL document CHEMBL2074165, “Evaluation of an immortalized retinal endothelial cell line as an in vitro model for drug transport studies across the blood-retinal barrier” (Pharm Res, 2003).

The target in this series is ATP-dependent translocase ABCB1 (Homo sapiens, UniProt P08183). In words: TP_TRANSPORTER: transepithelial transport (basal to apical) of AGN 197075 at a concentration of 10 uM in MDR1-expressing MDCK cells. The following applies: dog. In kind it is functional, cell-based.
Chain of ATP-dependent translocase ABCB1 (P08183 whole entry): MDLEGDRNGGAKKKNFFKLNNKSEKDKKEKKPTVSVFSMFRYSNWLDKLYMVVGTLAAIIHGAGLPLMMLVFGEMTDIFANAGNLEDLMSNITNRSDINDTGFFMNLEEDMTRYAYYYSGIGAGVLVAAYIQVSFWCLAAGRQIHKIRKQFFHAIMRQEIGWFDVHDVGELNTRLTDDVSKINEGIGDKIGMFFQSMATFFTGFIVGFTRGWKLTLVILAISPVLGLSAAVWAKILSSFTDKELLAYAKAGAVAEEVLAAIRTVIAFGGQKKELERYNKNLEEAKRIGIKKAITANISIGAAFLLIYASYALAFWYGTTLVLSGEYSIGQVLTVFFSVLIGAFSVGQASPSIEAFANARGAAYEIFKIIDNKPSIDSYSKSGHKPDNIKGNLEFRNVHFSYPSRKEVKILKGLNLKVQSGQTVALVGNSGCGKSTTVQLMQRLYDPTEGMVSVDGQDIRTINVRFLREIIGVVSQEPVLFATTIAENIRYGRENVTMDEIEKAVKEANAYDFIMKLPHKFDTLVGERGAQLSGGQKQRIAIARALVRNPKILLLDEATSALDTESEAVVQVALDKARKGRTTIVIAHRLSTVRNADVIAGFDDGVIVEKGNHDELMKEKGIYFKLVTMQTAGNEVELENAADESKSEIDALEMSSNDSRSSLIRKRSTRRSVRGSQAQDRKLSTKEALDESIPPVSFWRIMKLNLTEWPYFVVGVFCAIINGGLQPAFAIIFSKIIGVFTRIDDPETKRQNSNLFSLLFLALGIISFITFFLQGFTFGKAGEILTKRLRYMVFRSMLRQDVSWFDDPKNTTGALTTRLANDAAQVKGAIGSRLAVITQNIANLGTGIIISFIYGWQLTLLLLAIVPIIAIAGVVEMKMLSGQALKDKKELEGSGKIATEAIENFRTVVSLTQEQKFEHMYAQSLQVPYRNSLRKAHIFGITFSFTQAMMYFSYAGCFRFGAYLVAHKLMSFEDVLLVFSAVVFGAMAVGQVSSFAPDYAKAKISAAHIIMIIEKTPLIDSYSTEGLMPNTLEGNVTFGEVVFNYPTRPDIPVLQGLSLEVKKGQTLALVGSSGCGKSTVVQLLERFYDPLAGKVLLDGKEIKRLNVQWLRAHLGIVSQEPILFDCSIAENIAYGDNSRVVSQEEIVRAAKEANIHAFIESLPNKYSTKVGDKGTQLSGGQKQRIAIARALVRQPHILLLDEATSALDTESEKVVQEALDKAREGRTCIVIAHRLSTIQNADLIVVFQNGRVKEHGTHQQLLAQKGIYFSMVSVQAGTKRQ

Regarding `OCCNC(=S)NCc1cccc(Cl)c1F`, the Activity result was “substrate [+]”.
